Source: patent US20240400584A1, “COMPOUNDS AND METHODS FOR MODULATING SPLICING” (REMIX THERAPEUTICS INC., priority 2021, published 2024)

How the values were obtained:
HTT = assay: RT-qPCR splicing assay, HTT AJ/CJ mRNA; assay type: cell-based, human; settings: A673 or K562 cells; for IC50: decrease in canonical junction mRNA; for AC50: increase in alternative junction mRNA
How it was run: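 Cells: A673 (DMEM/10% FBS) or K562 (IMDM/10% FBS). Dosing: 11-pt 3-fold, top 10 uM final, DMSO ≤0.25%, 24 h, 37° C. Readout: one-step RT-qPCR on lysate, CJ vs AJ isoforms; ΔCt vs housekeeper, ΔΔCt vs DMSO, 2^(−ΔΔCt) RQ → % response.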

[1] = tested on: HiBit-tagged MYB in K562 cells; assay: HiBiT protein abundance assay, MYB; assay type: cell-based, human; settings: HiBiT-modified K562 cells, 24 hours, luminescence
Method: Compounds described herein were used to screen for effects on quantitative protein abundance using a HiBit assay system (Promega). Quantitative protein abundance was determined by measuring the protein levels of HiBit-tagged protein targets expressed in cell culture via luminescence using the Nano-Glo HiBiT Lytic Detection System, which uses a split complementation assay format to reconstitute NanoBiT enzyme to generate a luminescent signal. A protein abundance assay was developed such that endogenous protein targets could be modified with the HiBiT peptide tag and their abundance could be assessed after compound treatment. Briefly, K562 cell lines containing a HiBiT-modification were treated with various compounds described herein (e.g., compounds of Formulas (I)). After treatment for 24 hours, the protein abundance of a specific target was determined by measuring luminescence.
Cells were maintained in IMDM with 10% FBS. Before the assay, cells were diluted with […] growth media (IMDM+[…] media) and were seeded in a 384-well plate at a density of 10000 cells/well (for each cell line listed in Table 8). Each compound was prepared as a 10-point 3-fold serial dilution in DMSO with the top dose at a final concentration of 10 μM in the well. Unmodified K562 cells were added at the previously specified density with DMSO to serve as an assay baseline and positive control (PC) and DMSO only with the respective modified cell lines was added to the negative control (NC) columns. Final DMSO concentration was kept at or below 0.25% o. Treated cell plates were placed in an incubator at 37° C. with […] for 24 hours. After 24 hours, 25 μL of Complete HiBit Lytic reagent was added to each well at room temperature (e.g. one plate requiring 10 mL Lytic Buffer, 100 μL LgBiT Protein, 200 μL Lytic Substrate), shaken for 5 minutes at 600 RPM, then left to sit for 10 minutes for signal to stabilize before reading on a Spark Cyto plate reader (Tecan) with a 500 ms measurement time.
To determine compound effects on protein abundance of each target in Table 9, the percent response for each respective cell line was calculated at each compound concentration as follows:
For the normalized response at each concentration, a four-parameter logistical regression was fit to the data and the response was interpolated at the […] to determine a concentration for protein abundance at 50% o (IC50) the untreated control.

Row | SMILES | IC50 (HTT; Homo sapiens, 24 h) | AC50 (HTT; Homo sapiens, 24 h) | IC50 [1] | IC50 (HTT; 24 hours) | AC50 (HTT; 24 hours)
1 | Cc1cnc(-c2ccc3c(c2)COc2nc(N(C)[C@@H]4C[C@H]5CC[C@@H](C4)N5)ccc2-3)o1 [Compound 206] | 100 to 1000 nM | 100 to 1000 nM | 100 to 1000 nM | – | –
2 | CN(c1ccc2c(n1)COc1cc(-c3cn[nH]c3)ccc1-2)[C@@H]1C[C@H]2CC[C@@H](C1)N2 [Compound 121] | 100 to 1000 nM | 100 to 1000 nM | 1000 to 10000 nM | – | –
3 | Cc1ncc(-c2ccc3c(c2)COc2nc(O[C@@H]4C[C@H]5C[C@@H](C4)N5)ccc2-3)s1 [Compound 208] | – | – | 100 to 1000 nM | – | –
4 | C[C@H]1C[C@H](N(C)c2ccc3c(c2)OCc2cc(-c4cn[nH]c4)ccc2-3)CCN1 [Compound 102] | > 10000 nM | > 10000 nM | 1000 to 10000 nM | – | –
5 | CN(c1ccc2c(c1)OCc1cc(-c3cn[nH]c3)ccc1-2)[C@@H]1C[C@H]2CC[C@@H](C1)N2 [Compound 104] | > 10000 nM | > 10000 nM | 1000 to 10000 nM | – | –
6 | COc1cc(-c2ccc3c(c2)COc2nc(O[C@@H]4C[C@H]5COC[C@@H](C4)N5)ccc2-3)cnn1 [Compound 290, (exo)-7-{[8-(6-methoxypyridazin-4-yl)-6H-isochromeno[3,4-b]pyridin-3-yl]oxy}-3-oxa-9-azabicyclo[3.3.1]nonane] | < 100 nM | 100 to 1000 nM | 100 to 1000 nM | – | –
7 | CN(c1ccc2c(n1)COc1cc(-n3cccn3)ccc1-2)C1CC(C)(C)NC(C)(C)C1 [Compound 125] | > 10000 nM | > 10000 nM | 100 to 1000 nM | – | –
8 | CN(c1ccc2c(n1)OCc1cc(-n3ccnn3)ccc1-2)[C@@H]1C[C@H]2CC[C@@H](C1)N2 [Compound 152] | 100 to 1000 nM | < 100 nM | 100 to 1000 nM | – | –
9 | CN(c1ccc2c(n1)OCc1cc(-c3ccn(C)c(=O)c3)ccc1-2)[C@@H]1C[C@H]2CC[C@@H](C1)N2 [Compound 153] | < 100 nM | < 100 nM | < 100 nM | – | –
10 | C[C@@H]1C[C@H](N(C)c2ccc3c(c2)OCc2cc(-c4cn[nH]c4)ccc2-3)CCN1 [Compound 101] | – | > 10000 nM | 1000 to 10000 nM | – | –
11 | CN(c1ccc2c(n1)CCOc1cc(-n3cccn3)ccc1-2)C1CC(C)(C)NC(C)(C)C1 [Compound 129] | > 10000 nM | > 10000 nM | > 10000 nM | – | –
12 | CN(c1ccc2c(n1)OCc1cc(-c3cnn(C)c(=O)c3)ccc1-2)[C@@H]1C[C@H]2CC[C@@H](C1)N2 [Compound 160] | < 100 nM | < 100 nM | 100 to 1000 nM | – | –
13 | c1cc2c(cc1-c1cn[nH]c1)COc1nc(N[C@@H]3C[C@H]4CC[C@@H](C3)N4)cnc1-2 [Compound 143] | 100 to 1000 nM | 100 to 1000 nM | 1000 to 10000 nM | – | –
14 | Cc1ncc(-c2ccc3c(c2)COc2nc(N(C)[C@@H]4C[C@H]5CC[C@@H](C4)N5)ccc2-3)o1 [Compound 155] | < 100 nM | < 100 nM | 100 to 1000 nM | – | –
15 | CN(c1cnc2c(n1)OCc1cc(-c3cn[nH]c3)ccc1-2)C1CC(C)(C)NC(C)(C)C1 [Compound 142] | – | – | 1000 to 10000 nM | 100 to 1000 nM | 100 to 1000 nM
16 | Cc1cn(-c2ccc3c(c2)COc2nc(N(C)[C@@H]4C[C@H]5CC[C@@H](C4)N5)ccc2-3)cn1 [Compound 164] | < 100 nM | < 100 nM | 100 to 1000 nM | – | –
17 | CN(c1ccc2c(n1)OCc1cc(-c3cn[nH]c3)ccc1-2)C1CC(C)(C)NC(C)(C)C1 [Compound 147] | 100 to 1000 nM | 100 to 1000 nM | 100 to 1000 nM | – | –
18 | COc1cc(-c2ccc3c(c2)COc2nc(N4CCC(NC5(C)CCC5)C4)ccc2-3)cnn1 (stereo not shown) [Compound 285, 1-[8-(6-methoxypyridazin-4-yl)-6H-isochromeno[3,4-b]pyridin-3-yl]-N-(1-methylcyclobutyl)pyrrolidin-3-amine] | < 100 nM | 100 to 1000 nM | 100 to 1000 nM | – | –

Row | SMILES | IC50 (HTT; Homo sapiens, 24 h) | AC50 (HTT; Homo sapiens, 24 h) | IC50 [1] | IC50 (HTT; 24 hours) | AC50 (HTT; 24 hours)
19 | COc1cc(-c2ccc3c(c2)COc2nc(N4CCC(N5CCCC5)C4)ccc2-3)cnn1 (stereo not shown) [Compound 305] | 100 to 1000 nM | 100 to 1000 nM | 1000 to 10000 nM | – | –
20 | CC1(C)CC(Nc2ccc3c(c2)COc2cc(-n4cccn4)ccc2-3)CC(C)(C)N1 [Compound 118] | > 10000 nM | > 10000 nM | 1000 to 10000 nM | – | –
21 | CN(c1cnc2c(n1)OCc1cc(-c3cn[nH]c3)ccc1-2)[C@@H]1C[C@H]2CC[C@@H](C1)N2 [Compound 144] | 100 to 1000 nM | 100 to 1000 nM | 100 to 1000 nM | – | –
22 | CC1(C)CC(Nc2ccc3c(n2)COc2cc(-n4cccn4)ccc2-3)CC(C)(C)N1 [Compound 134] | 1000 to 10000 nM | 1000 to 10000 nM | 1000 to 10000 nM | – | –
23 | CN(c1ccc2c(n1)OCc1cc(-c3cn[nH]c3)ccc1-2)[C@@H]1C[C@H]2CC[C@@H](C1)N2 [Compound 108] | < 100 nM | < 100 nM | < 100 nM | – | –
24 | CC1(C)CC(Nc2ccc3c(n2)OCc2cc(-n4cccn4)ccc2-3)CC(C)(C)N1 [Compound 165] | 100 to 1000 nM | 100 to 1000 nM | 100 to 1000 nM | – | –
25 | CN(c1ccc2c(n1)OCc1cc(-n3ccnc3)ccc1-2)[C@@H]1C[C@H]2CC[C@@H](C1)N2 [Compound 163] | < 100 nM | < 100 nM | < 100 nM | – | –
26 | CN(c1ccc2c(n1)OCCc1cc(-c3cn[nH]c3)ccc1-2)C1CC(C)(C)NC(C)(C)C1 [Compound 145] | > 10000 nM | > 10000 nM | 1000 to 10000 nM | – | –
27 | CN(c1ccc2c(n1)OCc1cc(-n3nccn3)ccc1-2)[C@@H]1C[C@H]2CC[C@@H](C1)N2 [Compound 151] | < 100 nM | < 100 nM | 100 to 1000 nM | – | –
28 | CN(c1ccc2c(c1)CCOc1cc(-n3cccn3)ccc1-2)[C@@H]1C[C@H]2CC[C@@H](C1)N2 [Compound 113] | > 10000 nM | > 10000 nM | 1000 to 10000 nM | – | –
29 | CC(C)Oc1cnnc(-c2ccc3c(c2)COc2nc(N4CCC(NC(C)(C)C)C4)ccc2-3)c1 (stereo not shown) [Compound 286] | > 10000 nM | > 10000 nM | 1000 to 10000 nM | – | –
30 | CN(c1ccc2c(n1)OCc1cc(-c3ccc(=O)[nH]c3)ccc1-2)[C@@H]1C[C@H]2CC[C@@H](C1)N2 [Compound 157] | 1000 to 10000 nM | 1000 to 10000 nM | 1000 to 10000 nM | – | –
31 | CN(c1ccc2c(n1)OCc1cc(-c3cc(=O)n(C)cn3)ccc1-2)[C@@H]1C[C@H]2CC[C@@H](C1)N2 [Compound 162] | < 100 nM | < 100 nM | 100 to 1000 nM | – | –
32 | COc1cc(-c2ccc3c(c2)COc2nc(N4CCN[C@@H](C)C4)ccc2-3)cnn1 [Compound 287] | 100 to 1000 nM | 100 to 1000 nM | 100 to 1000 nM | – | –
33 | CN(c1ccc2c(n1)OCc1cc(-n3cccn3)ccc1-2)C1CC(C)(C)NC(C)(C)C1 [Compound 148] | 1000 to 10000 nM | 1000 to 10000 nM | 1000 to 10000 nM | – | –
34 | CN(c1ccc2c(n1)OCc1cc(-c3cn[nH]c3)ccc1-2)C1CCNCC1 [Compound 116] | 100 to 1000 nM | 1000 to 10000 nM | 1000 to 10000 nM | – | –
35 | c1cc2c(cc1-c1cn[nH]c1)COc1nc(N3CCC34CCNC4)ccc1-2 (stereo not shown) [Compound 207] | – | – | 1000 to 10000 nM | – | –
